Like-named read-outs stand apart in the source and are kept apart here.
Tests used:
[1] = β-thalassemia patients; cited from earlier work
[2] = system: erythrocytes; details: cited from earlier work
[3] = co-therapy with gentamicin, guinea pigs; cited from earlier work
[4] = cited from earlier work
[5] = cited from earlier work; remark: listed apart in the source
[6] = 14-day rat nephrotoxicity model
Excerpt: The rat in vivo assays provided information in the form of acute toxicity, changes in Blood Urea Nitrogen (BUN) and serum creatinine levels over time, as well as histopathology changes in the kidneys of animals sacrificed at the end of the study. Elevation in BUN or serum creatinine is one of the markers routinely monitored in the clinic as an indication of aminoglycoside nephrotoxicity.

[7] = system: HK-2 cells; test: HK-2 in vitro nephrotoxicity assay (CASPASEGLO caspase luminescence); assay type: cell-based, human
Experimental: An in vitro nephrotoxicity assay was conducted using the human kidney epithelial cell line, HK-2.
HK-2 cells were cultured in KSFM, with 5 ng/mL epidermal growth factor (EGF) and 0.05 mg/mL bovine pituitary extract (BPE). Cells were maintained at sub-confluence and used to initiate the assay when they reached 80% confluence.
Diluted compounds were added to plates. The plates were subsequently returned to the incubator overnight.
Luminescence was detected using a plate reading luminometer.
A human kidney proximal tubule cell line, HK-2 (ATCC #CRL-2190) is cultured in Keratinocyte-Serum Free Medium (K-SFM) (Invitrogen 17005-042) with 5 ng/mL of human recombinant epidermal growth factor (EGF) and 0.05 mg/mL Bovine Pituitary Extract (BPE). Culture medium containing EGF and/or BPE is not filtered subsequent to growth factor addition, and fresh growth factors are added to the culture medium after two weeks. The HK-2 cells are split so that they are 80% confluent on the day they need to be plated into 96 well plates. These cells are not allowed to become confluent.
Remove the HK-2 cells from the plate using trypsin-EDTA. Wash the plate with D-PBS. Add 0.5 mL trypsin, and incubate for 1 minute at room temperature or until cells start to lift off plate. Inactivate trypsin and harvest cells by adding prewarmed culture medium (37° C.) to the plate. […]
Thaw the CASPASEGLO reagents (CASPASEGLO 3/7 Assay, Promega G8093 10×10 mL or G8092 100 mL) at room temperature. For reagent addition to plates after 31 hour compound incubation: (i) remove plates from incubator (30.5 hours after adding compounds) for approximately 30 minutes to bring to room temperature; (ii) mix CASPASEGLO reagents according to manufacturer's instructions; (iii) add 50 μL of reagent/well to 96 well plates using BioMek®FX with tips 2 mm from bottom of reservoir well (Beckman Coulter); (iv) place plates on shaker platform and shake gently for 30 seconds; (v) incubate at room temperature for 30 minutes; (vi) place plates on shaker platform and shake gently for 30 seconds; and (vii) read plate 30-60 minutes after reagents are added, Analyst™ HT (LJL Biosystems™). The settings for the Analyst™ HT are: (i) default luminescence method; (ii) luminescence height, 1.5 mm; (iii) 5 readings per well; (iv) integration time of 100000 μs; and (v) attenuator out.
The average luminescence values are calculated along with the standard deviation of the replicates. The concentration of the aminoglycoside tested is graphed versus the corresponding luminescence reading. The area under the curve (AUC) is calculated for each experimental compound and for gentamicin. The EC50 can then be calculated for each experimental compound and gentamicin, using methods well known in the art.

[8] = patients, cited from earlier work
[9] = system: LLC-PK1 cells; details: gentamicin introduced by electroporation; cited from earlier work
[10] = rats, cited from earlier work
[11] = system: renal brush border membranes; details: in vitro; cited from earlier work

O=C(O)c1cccc(O)c1O [DHB, 2,3-dihydroxybenzoate]
toxicity of oral doses for one year [1]: no toxicity was observed | H2O2 induced membrane peroxidation [2]: inhibits H2O2 induced membrane peroxidation in erythrocytes | shifts in auditory thresholds [3]: significantly lower shifts in auditory thresholds | elevations in BUN and serum creatinine after gentamicin ([4]; rat, gentamicin treatment for eight days): reduced elevations in blood, urea, nitrogen (BUN) and serum creatinine | protection from gentamicin nephrotoxicity ([4]; rats): only partial protection from gentamicin nephrotoxicity | solubility in aqueous solution [5]: poor solubility in aqueous solution

NCC[C@H](O)C(=O)N[C@@H]1C[C@H](N)[C@@H](O[C@H]2O[C@H](CN)[C@@H](O)[C@H](O)[C@H]2O)[C@H](O)[C@H]1O[C@H]1O[C@H](CO)[C@@H](O)[C@H](N)[C@H]1O [amikacin]
rank order of relative in vivo nephrotoxicity ([6]; rat, in vivo): followed by amikacin, neomycin, and gentamicin | dose response curve of luminescence signal (induction of apoptosis) / EC50 [7]: did not produce a maximal response at the highest concentration tested | rank order of nephrotoxicity by EC50 in the in vitro HK-2 assay [7]: least nephrotoxic aminoglycoside tested

CC(=O)Oc1ccccc1C(=O)O [aspirin]
hearing loss versus gentamicin alone ([8]; intravenous gentamicin and oral aspirin): significantly less hearing loss | side effect of aspirin treatment [8]: caused gastric bleeding in some patients

[H]/N=C(/N)N[C@H]1[C@H](O)[C@@H](O)[C@H](O[C@@H]2O[C@@H](C)[C@](O)(C=O)[C@H]2O[C@@H]2O[C@@H](CO)[C@H](O)[C@@H](O)[C@@H]2NC)[C@@H](N/C(N)=N\[H])[C@@H]1O [streptomycin]
rank order of relative in vivo nephrotoxicity ([6]; rat, in vivo): least nephrotoxic aminoglycoside tested

gentamicin
rank order of relative in vivo nephrotoxicity ([6]; 14-day rat model, Example 3, FIG. 4): followed by amikacin, neomycin, and gentamicin | rank order of nephrotoxicity by minimum concentration of compound that produced an increase in BUN ([6]; 14-day rat model, six compounds, FIG. 3A): followed by apramycin, gentamicin and neomycin, compound A, and compound B | dose response curve of luminescence signal (induction of apoptosis) / EC50 ([7]; HK-2 cells, highest concentration tested 500 μg/mL, FIG. 2): produced a full dose response curve over the concentration range tested | rank order of nephrotoxicity by EC50 in the in vitro HK-2 assay ([7]; six compounds, FIG. 3A): followed by apramycin, gentamicin and neomycin, compound A, and compound B | apoptosis response [9]: dose-dependent apoptosis response at much lower gentamicin concentrations

polyaspartic acid
creatinine elevation or histopathological changes ([10]; 16 weeks after the two week treatment): no creatinine elevation or histopathological changes | gentamicin concentration in kidneys versus gentamicin alone ([10]; end of 14 day treatment, co-dosed with polyaspartic acid): five-fold higher gentamicin concentration in their kidneys | aminoglycoside binding to renal brush border membranes [11]: prevent aminoglycoside binding to renal brush border membranes

Reference: patent publication US20090220982A1, “COMPOSITIONS AND METHODS FOR DETERMINING NEPHROTOXICITY” (Achaogen Inc.., priority 2008, published 2009)
